No end group written: not given here.
Columns and labels:
HeLa cells [1] = experiment: Cytotoxicity after low pH wash; format: cell-based; settings: PBS pH 7 or 5, 150 μM EB 1 hr 37°C, n = 6
Vaccinia virus = settings: 1 h
[2] = test system: recombinant vaccinia virus vMJ343; settings: 1 h
vMJ343 = settings: 1 h
HeLa or Vero cells = settings: ref Akkarawongsa et al., 2006; cited from earlier work
HeLa cells [3] = settings: concentrations as high as 100 μM; ref Akkarawongsa et al., 2006; cited from earlier work
Vero cells = settings: concentrations as high as 100 μM; ref Akkarawongsa et al., 2006; cited from earlier work
mouse corneas = settings: applied at a concentration of 6.1 mM; ref Akkarawongsa et al., 2006; cited from earlier work

Sequence	Toxicity of low pH treatment and subsequent EB exposure (HeLa cells [1])	EC50 (Vaccinia virus)	EC50 [2]	EC50 (vMJ343)	CC50 (50% cytotoxic concentration) (HeLa or Vero cells)	Cytotoxicity to HeLa cells (HeLa cells [3])	Cytotoxicity to Vero cells (Vero cells)	Cytotoxic effects on mouse corneas (mouse corneas)
RRKKAAVALLPAVLLALLAP [EB]	not toxic to the cells	15 µM	45 µM	~45 µM	>100 µM	not cytotoxic	not cytotoxic	no cytotoxic effects
RRKKLAALPLVLAAPLAVLA [EBX, reference compound]	–	150 µM	–	–	>100 µM	–	–	–
